Experiments:
human ETA receptors = target: T1, human ETA receptors (Homo sapiens, UniProt P25101); assay: Inhibition of endothelin binding to recombinant ETA receptors; conditions: baculovirus-insect cell membranes, 20 pM 125I-endothelin, 20° C. for 2 hours or 4° C. for 24 hours, read-out: IC50 (inhibition of specific binding of 125I-endothelin)
T1 construct: made in house; host or cells: baculovirus-infected insect cells (membrane preparation)
T1 sequence (P25101 21-427): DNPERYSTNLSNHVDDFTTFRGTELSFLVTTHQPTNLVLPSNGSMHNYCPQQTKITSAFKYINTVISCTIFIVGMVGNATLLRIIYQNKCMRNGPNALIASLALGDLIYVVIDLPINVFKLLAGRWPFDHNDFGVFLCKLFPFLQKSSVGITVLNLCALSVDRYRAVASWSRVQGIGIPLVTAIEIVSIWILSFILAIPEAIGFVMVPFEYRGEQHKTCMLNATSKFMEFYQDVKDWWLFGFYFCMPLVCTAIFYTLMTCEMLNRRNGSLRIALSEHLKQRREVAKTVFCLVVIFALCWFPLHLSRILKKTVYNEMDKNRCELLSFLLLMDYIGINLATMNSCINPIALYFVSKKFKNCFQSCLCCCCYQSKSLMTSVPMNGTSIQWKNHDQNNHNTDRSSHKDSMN
Method: I: […] A cDNA coding for human ETA receptors of human placenta was cloned ([…]. Yang, Y. Furuichi and C. Miyamoto, BBRC 180, 1265-1272) and expressed in the baculovirus-insect cell system. Baculovirus-infected insect cells from a 23 l fermenter are centrifuged off (3000×g, 15 minutes, 4° C.) 60 hours after the infection, re-suspended in Tris buffer (5 mM, pH 7.4, 1 mM MgCl2) and again centrifuged. After a further re-suspension and centrifugation the cells are suspended in 800 ml of the same buffer and […] at -120° C. The cells disintegrate when the suspension in this hypotonic buffer mixture is thawed. After a repeated freeze-drying/thawing cycle the suspension is homogenized and centrifuged (25000×g, 15 minutes, 4° C.). After suspension in Tris buffer (75 mM, pH 7.4, 25 mM MgCl2, 250 mM sucrose) 1 ml aliquots (protein content about 3.5 mg/ml) are stored at -85° C. […] The incubation is carried out at 20° C. for 2 hours or at 4° C. for 24 hours. The separation of free and membrane-bound radio-ligands is carried out by filtration over a glass fibre filter.

[1] = target: T2, endothelin-induced contractions in isolated rat aorta rings (Rattus norvegicus, UniProt P26684); assay: Inhibition of endothelin-induced contractions in isolated rat aorta rings; format: cell-based, rat (Wistar-Kyoto); conditions: read-out: pA2 value; Dose ratio (switch to the right) (converted)
T2 construct: cut out from the thorax aorta of adult Wistar-Kyoto rats; from tissue; host or cells: thoracic aorta rings of adult Wistar-Kyoto rats, endothelium removed
T2 sequence (P26684 21-426): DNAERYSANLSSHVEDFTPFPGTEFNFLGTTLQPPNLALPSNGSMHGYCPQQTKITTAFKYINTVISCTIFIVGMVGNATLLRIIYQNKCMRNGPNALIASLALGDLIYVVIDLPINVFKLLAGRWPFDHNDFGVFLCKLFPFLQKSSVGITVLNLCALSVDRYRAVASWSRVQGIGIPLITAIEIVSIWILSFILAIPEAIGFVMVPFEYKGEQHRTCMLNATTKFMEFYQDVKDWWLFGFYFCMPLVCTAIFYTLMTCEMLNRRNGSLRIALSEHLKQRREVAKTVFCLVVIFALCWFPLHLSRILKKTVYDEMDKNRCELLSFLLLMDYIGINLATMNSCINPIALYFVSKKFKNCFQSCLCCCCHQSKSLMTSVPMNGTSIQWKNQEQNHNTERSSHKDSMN
Method: Rings with a length of 5 mm were cut out from the thorax aorta of adult Wistar-Kyoto rats. The endothelium was removed by lightly rubbing the internal surface. Each ring was immersed at 37° C. in 10 ml of Krebs-Henseleit solution in an isolated bath while gassing with 95% O2 and 5% CO2. The isometric stretching of the rings was measured. The rings were stretched to a pre-tension of 3 g.
The corresponding pA2 value, which is a measure of the activity of the test compound, was calculated using a computer programme according to the following equation from the "dose ratio" DR for each individual dosage-activity curve.
pA2 =log(DR-1)-log(antagonist-concentration)

Structure (SMILES)	IC50 (human ETA receptors)	Kb [1]
COc1ccccc1Oc1c(NS(=O)(=O)c2ccc(SC)cc2)nc(-c2ccnc(-c3nnn[nH]3)c2)nc1OCCOC(=O)Nc1ccccn1 [Example 40, 2-[5-(2-methoxy-phenoxy)-6-(4-methylsulphanylphenylsulphonylamino)-2-(2-1H-tetrazol-5-yl-pyridin-4-yl)-pyrimidin-4-yloxy]-ethyl pyridin-2-ylcarbamate]	8 nM	0.0631 nM
COc1ccccc1Oc1c(NS(=O)(=O)c2ccc(C(C)(C)C)cc2)nc(-c2ccnc(-c3nnn[nH]3)c2)nc1OCCOC(=O)Nc1ccccn1 [Example 4, 2-[6-(4-tert-butyl-phenylsulphonylamino)-5-(2-methoxy-phenoxy)-2-(2-1H-tetrazol-5-yl-pyridin-4-yl)-pyrimidin-4-yl-oxy]-ethyl pyridin-2-ylcarbamate]	6 nM	0.251 nM
COc1ccccc1Oc1c(NS(=O)(=O)c2ccccc2)nc(-c2ccnc(-c3nnn[nH]3)c2)nc1OCCOC(=O)Nc1ccccn1 [Example 35, 2-[5-(2-methoxy-phenoxy)-6-phenyl-sulphonylamino-2-(2-1H-tetrazol-5-yl-pyridin-4-yl)-pyrimidin-4-yloxy]-ethyl pyridin-2-ylcarbamate]	2 nM	0.316 nM
COc1ccccc1Oc1c(NS(=O)(=O)c2ccc(C)cn2)nc(-c2ccnc(-c3nnn[nH]3)c2)nc1OCCO [Example 29, 5-methyl-pyridine-2-sulphonic acid 6-(2-hydroxy-ethoxy)-5-(2-methoxy-phenoxy)-2-(2-1H-tetrazol-5-yl-pyridin-4-yl)-pyrimidin-4-ylamide]	4 nM	0.1 nM
COc1ccccc1Oc1c(NS(=O)(=O)c2ccc3c(c2)OCO3)nc(-c2ccnc(-c3nnn[nH]3)c2)nc1OCCOC(=O)Nc1ccccn1 [Example 41, 2-[6-(1,3-benzodioxol-5-yl-sulphonylamino)-5-(2-methoxy-phenoxy)-2-(2-1H-tetrazol-5-yl-pyridin-4-yl)-pyrimidin-4-yloxy]-ethyl pyridin-2-ylcarbamate]	1 nM	0.0251 nM
COc1ccccc1Oc1c(NS(=O)(=O)c2ccc(C)cc2)nc(-c2ccnc(-c3nnn[nH]3)c2)nc1OCCOC(=O)Nc1ccccn1 [Example 36, 2-[5-(2-methoxy-phenoxy)-6-(4-methyl-phenylsulphonylamino)-2-(2-1H-tetrazol-5-yl-pyridin-4-yl)-pyrimidin-4-yloxy]-ethyl pyridin-2-ylcarbamate]	8 nM	0.398 nM
